Here are results for eleven molecules from ChEMBL document CHEMBL4340560, “Design and synthesis of novel 1-phenyl-3-(5-(pyrimidin-4-ylthio)-1,3,4-thiadiazol- 2-yl)urea derivatives with potent anti-CML activity throughout PI3K/AKT signaling pathway” (Bioorg Med Chem Lett, 2019).

Experiment [1] concerns K562. Briefly: Antiproliferative activity against human K562 cells assessed as inhibition of cell viability incubated for 72 hrs by real time live-cell imaging technique. In kind it is functional, cell-based. The following applies: K562, 72 h.
Experiment [2] concerns K562. Briefly: Induction of apoptosis in human K562 cells assessed as increase in apoptotic cells at 10 uM incubated for 48 hrs by Caspase-3/7 reagent-based fluorescence assay. In kind it is functional, cell-based.
Experiment [3] concerns the target Cellular tumor antigen p53 (Homo sapiens) (UniProt P04637). As to the kind of experiment: Induction of p53 phosphorylation at S392, S46, S15 residues in human K562 cells up to 10 uM incubated for 48 hrs by human phospho-kinase array. In kind it is cell-based.
Experiment [4] has as its system K562. Briefly: Induction of apoptosis in human K562 cells assessed as increase in apoptotic cells at 10 uM incubated for 24 to 48 hrs by Caspase-3/7 reagent-based fluorescence assay. In kind it is functional, cell-based.
The target in experiment [5] is Serine/threonine-protein kinase AKT (Homo sapiens) (UniProt P31751+Q9Y243+P31749). Briefly: Inhibition of AKT1/2/3 phosphorylation (S473/T308 residues) in human K562 cells up to 10 uM incubated for 48 hrs by human phospho-kinase array. In kind it is cell-based.
Experiment [6] deals with K562. Briefly: Inhibition of PI3K/Akt signaling in human K562 cells assessed as reduction in p70S6K phosphorylation at T421/S424 residues up to 10 uM incubated for 48 hrs by human phospho-kinase array. In kind it is cell-based.
Experiment [7] has as its system K562. Briefly: Inhibition of PI3K/Akt signaling in human K562 cells assessed as reduction in mTOR phosphorylation at S2448 residues up to 10 uM incubated for 48 hrs by human phospho-kinase array. In kind it is cell-based.
The test system of experiment [8] is K562. Briefly: Inhibition of PI3K/Akt signaling in human K562 cells assessed as reduction in GSK3alpha/beta phosphorylation at S21/S9 residues up to 10 uM incubated for 48 hrs by human phospho-kinase array. In kind it is cell-based.
The target in experiment [9] is Protein-tyrosine kinase 2-beta (Homo sapiens) (UniProt Q14289). As to the kind of experiment: Inhibition of PYK2 phosphorylation in human K562 cells up to 10 uM incubated for 48 hrs by human phospho-kinase array. In kind it is cell-based.
In experiment [10] the target is Cyclin-dependent kinase inhibitor 1B (Homo sapiens) (UniProt P46527). Briefly: Induction of p27 phosphorylation at T198 residues in human K562 cells up to 10 uM incubated for 48 hrs by human phospho-kinase array. In kind it is cell-based.
The subject of experiment [11] is K562. As to the kind of experiment: Inhibition of MAPK signalling in human K562 cells assessed as effect on p38 phosphorylation up to 10 uM incubated for 48 hrs by human phospho-kinase array. In kind it is cell-based.
Experiment [12] relates to K562. Briefly: Inhibition of RAF/MEK/ERK signalling n human K562 cells assessed as reduction in ERK1/2 phosphorylation at T202/Y204, T185/Y187 residues up to 10 uM incubated for 48 hrs by human phospho-kinase array. In kind it is cell-based.
Experiment [13] deals with Proto-oncogene tyrosine-protein kinase Src (Homo sapiens) (UniProt P12931). Briefly: Inhibition of SRC phosphorylation in human K562 cells up to 10 uM incubated for 48 hrs by human phospho-kinase array. In kind it is cell-based.
The target in experiment [14] is Tyrosine-protein kinase Lck (Homo sapiens) (UniProt P06239). Briefly: Inhibition of LCK phosphorylation in human K562 cells up to 10 uM incubated for 48 hrs by human phospho-kinase array. In kind it is cell-based.
The subject of experiment [15] is K562. Briefly: Inhibition of RAF/MEK/ERK signalling n human K562 cells assessed as reduction in RSK1/2/3 phosphorylation at S380/S386/S377 residues up to 10 uM incubated for 48 hrs by human phospho-kinase array. In kind it is cell-based.
The subject of experiment [16] is K562. Briefly: Inhibition of MAPK signalling in human K562 cells assessed as effect on HSP27 phosphorylation up to 10 uM incubated for 48 hrs by human phospho-kinase array. In kind it is cell-based.
Experiment [17] has as its system K562. As to the kind of experiment: Inhibition of MAPK signalling in human K562 cells assessed as effect on JNK phosphorylation up to 10 uM incubated for 48 hrs by human phospho-kinase array. In kind it is cell-based.
Experiment [18] concerns the target Serine/threonine-protein kinase WNK1 (Homo sapiens) (UniProt Q9H4A3). As to the kind of experiment: Inhibition of WNK1 phosphorylation at T60 residue in human K562 cells up to 10 uM incubated for 48 hrs by human phospho-kinase array. In kind it is cell-based.
In experiment [19] the target is Proline-rich AKT1 substrate 1 (Homo sapiens) (UniProt Q96B36). Briefly: Inhibition of PRAS40 phosphorylation at T246 residue in human K562 cells up to 10 uM incubated for 48 hrs by human phospho-kinase array. In kind it is cell-based.
Experiment [20] relates to K562. As to the kind of experiment: Inhibition of STAT signalling in human K562 cells up to 10 uM incubated for 48 hrs by human phospho-kinase array. In kind it is cell-based.

Molecules are shown by their SMILES. Activity calls are given as the source filed them. No cut-off for these calls is given here.

Sequence of Serine/threonine-protein kinase AKT (Homo sapiens) (P31749 whole entry, looked up): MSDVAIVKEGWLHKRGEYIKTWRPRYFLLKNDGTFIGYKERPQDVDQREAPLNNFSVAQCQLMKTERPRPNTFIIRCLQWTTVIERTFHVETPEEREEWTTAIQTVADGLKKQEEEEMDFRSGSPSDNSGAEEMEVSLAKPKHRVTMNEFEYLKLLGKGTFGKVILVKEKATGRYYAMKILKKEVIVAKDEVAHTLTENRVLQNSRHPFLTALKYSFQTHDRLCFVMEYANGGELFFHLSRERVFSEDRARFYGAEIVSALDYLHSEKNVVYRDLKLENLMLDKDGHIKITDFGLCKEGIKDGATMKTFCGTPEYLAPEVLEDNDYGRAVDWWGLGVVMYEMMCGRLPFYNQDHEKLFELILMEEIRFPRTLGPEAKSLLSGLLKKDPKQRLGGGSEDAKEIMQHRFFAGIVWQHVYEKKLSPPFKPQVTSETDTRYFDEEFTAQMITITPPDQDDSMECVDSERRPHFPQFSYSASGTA
Sequence of Serine/threonine-protein kinase AKT (Homo sapiens) (P31751 whole entry, looked up): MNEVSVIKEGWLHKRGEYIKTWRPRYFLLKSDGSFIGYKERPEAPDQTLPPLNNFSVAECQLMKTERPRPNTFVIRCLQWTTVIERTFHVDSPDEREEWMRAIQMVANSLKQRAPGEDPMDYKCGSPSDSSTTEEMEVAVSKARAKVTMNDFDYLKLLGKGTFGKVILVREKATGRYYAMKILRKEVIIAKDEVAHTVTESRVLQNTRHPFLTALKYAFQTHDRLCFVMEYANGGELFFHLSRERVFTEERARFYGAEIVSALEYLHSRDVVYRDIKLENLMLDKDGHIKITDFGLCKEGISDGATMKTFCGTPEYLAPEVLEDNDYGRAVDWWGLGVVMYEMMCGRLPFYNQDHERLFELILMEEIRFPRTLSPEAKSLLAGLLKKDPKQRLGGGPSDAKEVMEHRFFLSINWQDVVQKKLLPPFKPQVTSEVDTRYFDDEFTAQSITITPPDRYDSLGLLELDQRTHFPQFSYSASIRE
Sequence of Serine/threonine-protein kinase AKT (Homo sapiens) (Q9Y243 whole entry, looked up): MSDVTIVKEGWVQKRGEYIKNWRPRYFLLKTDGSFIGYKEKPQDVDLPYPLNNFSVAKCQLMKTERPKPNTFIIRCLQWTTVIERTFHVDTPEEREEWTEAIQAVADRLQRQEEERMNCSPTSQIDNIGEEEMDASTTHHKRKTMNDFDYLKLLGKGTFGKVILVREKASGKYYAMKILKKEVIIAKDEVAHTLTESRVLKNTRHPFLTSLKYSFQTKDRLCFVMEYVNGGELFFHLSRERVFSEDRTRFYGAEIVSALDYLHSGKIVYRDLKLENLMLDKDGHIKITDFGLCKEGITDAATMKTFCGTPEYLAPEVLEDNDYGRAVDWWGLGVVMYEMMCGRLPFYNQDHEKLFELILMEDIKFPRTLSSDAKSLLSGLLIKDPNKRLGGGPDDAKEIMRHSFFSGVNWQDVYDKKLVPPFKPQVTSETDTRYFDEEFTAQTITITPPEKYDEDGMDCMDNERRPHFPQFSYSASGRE
Sequence of Serine/threonine-protein kinase WNK1 (Homo sapiens) (Q9H4A3 whole entry, looked up): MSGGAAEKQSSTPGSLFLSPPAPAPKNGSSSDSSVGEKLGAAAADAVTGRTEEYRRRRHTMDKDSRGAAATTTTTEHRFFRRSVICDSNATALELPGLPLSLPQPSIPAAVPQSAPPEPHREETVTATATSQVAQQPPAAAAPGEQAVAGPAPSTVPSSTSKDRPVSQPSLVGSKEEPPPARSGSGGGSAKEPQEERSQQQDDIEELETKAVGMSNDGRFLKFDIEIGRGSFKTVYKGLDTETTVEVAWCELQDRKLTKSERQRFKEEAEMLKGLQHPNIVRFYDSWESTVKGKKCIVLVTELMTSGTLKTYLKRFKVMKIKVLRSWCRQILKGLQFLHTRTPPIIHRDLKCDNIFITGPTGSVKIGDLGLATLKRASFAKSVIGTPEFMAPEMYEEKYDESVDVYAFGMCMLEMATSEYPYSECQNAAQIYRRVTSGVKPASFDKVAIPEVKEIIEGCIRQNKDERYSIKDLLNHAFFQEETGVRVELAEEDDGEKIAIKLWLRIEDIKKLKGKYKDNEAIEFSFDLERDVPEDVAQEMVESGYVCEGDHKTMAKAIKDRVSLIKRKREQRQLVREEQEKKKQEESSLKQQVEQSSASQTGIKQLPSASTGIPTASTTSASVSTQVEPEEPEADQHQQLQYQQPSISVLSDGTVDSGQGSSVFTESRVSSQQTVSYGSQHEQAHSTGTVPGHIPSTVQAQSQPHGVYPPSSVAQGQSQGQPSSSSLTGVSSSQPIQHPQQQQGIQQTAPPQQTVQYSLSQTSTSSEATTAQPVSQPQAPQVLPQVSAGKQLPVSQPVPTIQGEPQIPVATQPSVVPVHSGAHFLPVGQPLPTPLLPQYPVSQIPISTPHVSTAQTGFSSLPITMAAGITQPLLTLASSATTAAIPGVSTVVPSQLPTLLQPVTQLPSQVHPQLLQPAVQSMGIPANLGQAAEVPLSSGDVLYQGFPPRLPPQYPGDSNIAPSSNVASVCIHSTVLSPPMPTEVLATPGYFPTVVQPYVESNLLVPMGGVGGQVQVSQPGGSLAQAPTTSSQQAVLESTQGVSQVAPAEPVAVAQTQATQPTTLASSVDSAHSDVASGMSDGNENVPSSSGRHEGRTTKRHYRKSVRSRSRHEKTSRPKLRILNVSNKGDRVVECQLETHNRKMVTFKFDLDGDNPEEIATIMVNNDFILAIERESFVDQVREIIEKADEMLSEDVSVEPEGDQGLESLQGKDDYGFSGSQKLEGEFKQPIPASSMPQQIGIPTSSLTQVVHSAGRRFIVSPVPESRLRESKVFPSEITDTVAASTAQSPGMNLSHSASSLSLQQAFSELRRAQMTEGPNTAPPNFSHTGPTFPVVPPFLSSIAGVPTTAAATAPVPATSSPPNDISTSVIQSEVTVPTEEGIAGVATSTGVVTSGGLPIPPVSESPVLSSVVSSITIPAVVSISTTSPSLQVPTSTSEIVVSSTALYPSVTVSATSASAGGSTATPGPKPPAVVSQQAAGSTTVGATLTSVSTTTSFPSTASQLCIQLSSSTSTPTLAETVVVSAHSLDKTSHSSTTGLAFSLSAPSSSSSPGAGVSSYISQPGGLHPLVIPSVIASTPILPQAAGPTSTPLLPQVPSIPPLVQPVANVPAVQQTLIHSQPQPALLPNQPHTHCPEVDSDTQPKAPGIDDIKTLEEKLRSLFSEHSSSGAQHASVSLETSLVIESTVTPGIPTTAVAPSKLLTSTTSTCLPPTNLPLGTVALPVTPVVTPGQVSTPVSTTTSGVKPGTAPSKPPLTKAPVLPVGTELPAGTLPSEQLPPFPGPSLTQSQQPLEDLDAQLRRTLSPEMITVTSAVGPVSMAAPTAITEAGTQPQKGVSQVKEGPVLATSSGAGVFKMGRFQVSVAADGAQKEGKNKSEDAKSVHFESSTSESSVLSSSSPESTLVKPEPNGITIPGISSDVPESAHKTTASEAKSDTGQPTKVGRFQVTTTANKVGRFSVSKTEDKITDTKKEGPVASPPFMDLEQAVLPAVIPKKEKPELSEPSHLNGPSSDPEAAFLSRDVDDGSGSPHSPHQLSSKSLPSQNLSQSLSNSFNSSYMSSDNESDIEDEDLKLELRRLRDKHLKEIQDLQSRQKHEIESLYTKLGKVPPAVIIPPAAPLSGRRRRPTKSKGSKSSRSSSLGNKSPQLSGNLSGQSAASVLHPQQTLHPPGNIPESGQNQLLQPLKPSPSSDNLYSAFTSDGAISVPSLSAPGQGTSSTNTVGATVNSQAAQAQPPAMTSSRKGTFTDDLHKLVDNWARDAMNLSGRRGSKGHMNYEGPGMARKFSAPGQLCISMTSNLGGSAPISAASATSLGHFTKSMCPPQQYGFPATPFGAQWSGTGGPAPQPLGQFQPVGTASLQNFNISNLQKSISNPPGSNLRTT
Sequence of Tyrosine-protein kinase Lck (Homo sapiens) (P06239 2-509 limits assumed): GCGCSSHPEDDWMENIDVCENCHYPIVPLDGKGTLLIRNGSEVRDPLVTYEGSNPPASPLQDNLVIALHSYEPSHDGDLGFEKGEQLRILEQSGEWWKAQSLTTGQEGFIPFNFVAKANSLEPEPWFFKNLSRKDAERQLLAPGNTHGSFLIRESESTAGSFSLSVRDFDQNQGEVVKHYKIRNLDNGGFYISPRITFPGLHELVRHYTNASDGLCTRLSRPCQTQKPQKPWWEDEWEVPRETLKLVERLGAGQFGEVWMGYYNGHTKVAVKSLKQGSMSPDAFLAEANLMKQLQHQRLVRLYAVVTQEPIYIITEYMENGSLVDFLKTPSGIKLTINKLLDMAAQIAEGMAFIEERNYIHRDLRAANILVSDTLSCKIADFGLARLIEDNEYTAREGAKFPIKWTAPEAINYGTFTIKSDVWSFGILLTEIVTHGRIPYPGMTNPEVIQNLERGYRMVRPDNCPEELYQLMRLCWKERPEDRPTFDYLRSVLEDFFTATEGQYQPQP
Sequence of Cyclin-dependent kinase inhibitor 1B (Homo sapiens) (P46527 whole entry): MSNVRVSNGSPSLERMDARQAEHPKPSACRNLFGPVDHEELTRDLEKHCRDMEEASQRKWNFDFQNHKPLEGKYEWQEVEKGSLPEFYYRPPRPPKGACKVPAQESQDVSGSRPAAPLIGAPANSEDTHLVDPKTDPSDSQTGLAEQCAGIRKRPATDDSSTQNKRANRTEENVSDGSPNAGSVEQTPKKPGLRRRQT

`Cc1ccc(NC(=O)Nc2nnc(Sc3cc(NCCCN4CCOCC4)ncn3)s2)cc1`: in the experiment on K562 [1], the IC50 – broadly, the concentration that inhibits the measured activity by half – was 56 nM.
Same read-out and setting: to `CCN(CC)CCCNc1cc(Sc2nnc(NC(=O)Nc3ccc(C)cc3)s2)ncn1` belongs 14 nM; to `Cc1ccc(NC(=O)Nc2nnc(Sc3cc(OCCCN4CCOCC4)ncn3)s2)cc1`, 78 nM.
For `Cc1ccc(NC(=O)c2ccc(CN3CCN(C)CC3)cc2)cc1Nc1nccc(-c2cccnc2)n1` [IMATINIB], the concentration for half-maximal inhibition (IC50) in the experiment on K562 [1] was found to be 140 nM. Moreover, the outcome in the experiment on K562 [2] was Active.
For `CCN(CC)CCCNc1cc(Sc2nnc(NC(=O)Nc3ccc(Cl)c(C(F)(F)F)c3)s2)ncn1`, the IC50 in the experiment with K562 [1] was 280 nM.
As to `O=C(Nc1ccc(Cl)cc1)Nc1nnc(Sc2cc(NCCCN3CCOCC3)ncn2)s1`, in the experiment with K562 [1], the IC50 came out at 110 nM.
The same measure, in the same setting: the figure for `Cc1ccc(NC(=O)Nc2nnc(Sc3cc(NCCCN4CCOCC4)ncn3)s2)cc1Cl` is 35 nM.
The same measure, in the same setting: to `O=C(Nc1ccc(Cl)c(C(F)(F)F)c1)Nc1nnc(Sc2cc(OCCCN3CCOCC3)ncn2)s1` belongs 150 nM.
Still for that read-out and setting: to `O=C(Nc1ccc(Cl)c(C(F)(F)F)c1)Nc1nnc(Sc2cc(NCCCN3CCOCC3)ncn2)s1` belongs 120 nM.
With `COc1cccc(NC(=O)Nc2nnc(Sc3cc(NCCCN4CCOCC4)ncn3)s2)c1`, the IC50 in the experiment with K562 [1] came to 690 nM.
Consider `O=C(Nc1ccc(C(F)(F)F)cc1)Nc1nnc(Sc2cc(NCCCN3CCOCC3)ncn2)s1`, for which the outcome (in experiment [3]; in the experiment with K562 [4]; in experiment [10]) was Active. Moreover, the IC50 with K562 [1] worked out at 38 nM. Moreover, the inhibition result (in experiment [5]; in the experiment with K562 [6]; in the experiment on K562 [7]; in the experiment on K562 [8]; in experiment [9]; with K562 [11]) was “Active” in each case. Also, the inhibition result (in the experiment on K562 [12]; in experiment [13]; in experiment [14]; in the experiment on K562 [15]; in the experiment with K562 [16]; in the experiment with K562 [17]) was “Active” each time. Moreover, the inhibition result (in [18]; in experiment [19]; in the experiment on K562 [20]) was “Active” in each case.
